Calls of active or inactive are those of the source.
Assays:
[1] = target: T1, Adenosylmethionine-8-amino-7-oxononanoate aminotransferase (Mycobacterium tuberculosis, UniProt P9WQ81); assay: Mycobacterium tuberculosis BioA enzyme inhibitor Measured in Biochemical System Using Plate Reader - 2163-02_Inhibitor_Dose_CherryPick_Activity.; type: functional, Mycobacterium tuberculosis UT205
T1 sequence (P9WQ81 whole entry): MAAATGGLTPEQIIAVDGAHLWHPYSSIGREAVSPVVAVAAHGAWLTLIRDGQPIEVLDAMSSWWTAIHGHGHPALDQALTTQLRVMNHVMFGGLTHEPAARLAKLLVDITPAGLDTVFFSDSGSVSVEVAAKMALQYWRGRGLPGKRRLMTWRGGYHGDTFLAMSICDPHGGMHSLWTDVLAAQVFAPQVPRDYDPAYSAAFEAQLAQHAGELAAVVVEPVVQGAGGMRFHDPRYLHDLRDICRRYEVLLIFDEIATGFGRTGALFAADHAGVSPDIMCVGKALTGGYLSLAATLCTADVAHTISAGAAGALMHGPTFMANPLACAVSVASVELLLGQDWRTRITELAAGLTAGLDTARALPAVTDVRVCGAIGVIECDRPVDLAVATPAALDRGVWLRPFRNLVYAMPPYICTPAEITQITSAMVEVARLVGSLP

[2] = NIH3T3 cell viability loss – ATP luminescence, mouse fibroblasts, counter-screen, dose response (AID 2010); type: functional, cell-based;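 further: cells exposed to compound for about 90 hours before reading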
Beta-galactosidase = Beta-galactosidase (Escherichia coli, UniProt Q8VNN2); assay: PubChem AID 485352; type: functional
[3] = target: T2, Type-1 angiotensin II receptor (Homo sapiens, UniProt P30556); assay: antagonism of angiotensin II type 1 receptor – cell-based, uHTS hits, selectivity assay for APJ receptor antagonist project, dose response (AID 463214); type: functional;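 further: antagonist potency against angiotensin II stimulated AT1 response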
T2 sequence (P30556 whole entry): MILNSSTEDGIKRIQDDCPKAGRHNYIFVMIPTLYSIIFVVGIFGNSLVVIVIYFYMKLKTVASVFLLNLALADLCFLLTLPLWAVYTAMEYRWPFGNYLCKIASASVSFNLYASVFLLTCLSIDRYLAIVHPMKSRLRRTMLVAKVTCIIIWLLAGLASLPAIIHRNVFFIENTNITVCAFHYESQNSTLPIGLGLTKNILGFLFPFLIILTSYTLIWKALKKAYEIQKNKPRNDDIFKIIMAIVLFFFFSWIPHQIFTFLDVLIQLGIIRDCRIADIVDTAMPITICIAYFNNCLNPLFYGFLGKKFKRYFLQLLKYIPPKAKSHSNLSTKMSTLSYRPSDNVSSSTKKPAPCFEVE

[4] = Trypanosoma cruzi growth suppression in host cells – NIH3T3 host cells, beta-gal luminescence, confirmation (AID 2044); type: functional, cell-based;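 further: intracellular parasites grown in NIH/3T3 mouse fibroblasts as host cells; luminescent beta-galactosidase reporter signal from transgenic T. cruzi replicating inside host cells; inhibitors lower the luminescence signal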
INS1 = assay: INS-1E survival protection against cytokine death – cell-based, luminescence, retest, dose response (AID 449756); type: functional; settings: Rattus norvegicus;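 further: cell death triggered by IL-1 beta plus TNF-alpha plus IFN-gamma mixture; protective hits raise ATP signal compared with cytokine alone wells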
[5] = target: T3, Sentrin-specific protease 7 (Homo sapiens, UniProt Q9BQF6); assay: inhibition of human SENP7 cleavage activity – biochemical, luminescence, SAR follow-up (AID 504497); type: functional
T3 sequence (Q9BQF6 whole entry): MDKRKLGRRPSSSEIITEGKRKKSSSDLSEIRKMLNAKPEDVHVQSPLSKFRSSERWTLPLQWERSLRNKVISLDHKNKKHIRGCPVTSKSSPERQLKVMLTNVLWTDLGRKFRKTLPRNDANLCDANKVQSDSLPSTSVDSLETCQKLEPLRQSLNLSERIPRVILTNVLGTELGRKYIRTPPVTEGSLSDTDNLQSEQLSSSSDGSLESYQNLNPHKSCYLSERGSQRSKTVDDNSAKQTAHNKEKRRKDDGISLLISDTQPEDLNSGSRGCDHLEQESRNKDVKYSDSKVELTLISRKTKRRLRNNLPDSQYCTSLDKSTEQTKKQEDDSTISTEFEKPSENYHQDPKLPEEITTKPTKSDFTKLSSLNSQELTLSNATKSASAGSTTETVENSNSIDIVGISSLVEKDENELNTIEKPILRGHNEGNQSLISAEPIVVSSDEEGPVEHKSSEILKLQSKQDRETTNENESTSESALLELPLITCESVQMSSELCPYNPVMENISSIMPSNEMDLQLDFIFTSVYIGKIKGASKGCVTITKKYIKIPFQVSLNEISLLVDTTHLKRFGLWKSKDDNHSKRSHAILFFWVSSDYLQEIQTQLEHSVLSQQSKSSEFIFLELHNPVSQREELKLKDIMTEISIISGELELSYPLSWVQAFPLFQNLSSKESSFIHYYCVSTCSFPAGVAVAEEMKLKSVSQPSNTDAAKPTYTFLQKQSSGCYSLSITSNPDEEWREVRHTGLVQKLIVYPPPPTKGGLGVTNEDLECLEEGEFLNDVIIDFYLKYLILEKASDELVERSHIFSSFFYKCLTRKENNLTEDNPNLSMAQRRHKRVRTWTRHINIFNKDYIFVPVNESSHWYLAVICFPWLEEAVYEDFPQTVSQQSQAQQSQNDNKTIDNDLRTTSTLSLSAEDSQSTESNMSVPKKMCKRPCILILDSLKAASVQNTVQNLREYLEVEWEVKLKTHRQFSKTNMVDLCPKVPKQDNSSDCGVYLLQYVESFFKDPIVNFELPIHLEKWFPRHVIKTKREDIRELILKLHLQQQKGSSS

[6] = target: T4, Sentrin-specific protease 6 (Homo sapiens, UniProt Q9GZR1); type: functional
T4 sequence (Q9GZR1 whole entry): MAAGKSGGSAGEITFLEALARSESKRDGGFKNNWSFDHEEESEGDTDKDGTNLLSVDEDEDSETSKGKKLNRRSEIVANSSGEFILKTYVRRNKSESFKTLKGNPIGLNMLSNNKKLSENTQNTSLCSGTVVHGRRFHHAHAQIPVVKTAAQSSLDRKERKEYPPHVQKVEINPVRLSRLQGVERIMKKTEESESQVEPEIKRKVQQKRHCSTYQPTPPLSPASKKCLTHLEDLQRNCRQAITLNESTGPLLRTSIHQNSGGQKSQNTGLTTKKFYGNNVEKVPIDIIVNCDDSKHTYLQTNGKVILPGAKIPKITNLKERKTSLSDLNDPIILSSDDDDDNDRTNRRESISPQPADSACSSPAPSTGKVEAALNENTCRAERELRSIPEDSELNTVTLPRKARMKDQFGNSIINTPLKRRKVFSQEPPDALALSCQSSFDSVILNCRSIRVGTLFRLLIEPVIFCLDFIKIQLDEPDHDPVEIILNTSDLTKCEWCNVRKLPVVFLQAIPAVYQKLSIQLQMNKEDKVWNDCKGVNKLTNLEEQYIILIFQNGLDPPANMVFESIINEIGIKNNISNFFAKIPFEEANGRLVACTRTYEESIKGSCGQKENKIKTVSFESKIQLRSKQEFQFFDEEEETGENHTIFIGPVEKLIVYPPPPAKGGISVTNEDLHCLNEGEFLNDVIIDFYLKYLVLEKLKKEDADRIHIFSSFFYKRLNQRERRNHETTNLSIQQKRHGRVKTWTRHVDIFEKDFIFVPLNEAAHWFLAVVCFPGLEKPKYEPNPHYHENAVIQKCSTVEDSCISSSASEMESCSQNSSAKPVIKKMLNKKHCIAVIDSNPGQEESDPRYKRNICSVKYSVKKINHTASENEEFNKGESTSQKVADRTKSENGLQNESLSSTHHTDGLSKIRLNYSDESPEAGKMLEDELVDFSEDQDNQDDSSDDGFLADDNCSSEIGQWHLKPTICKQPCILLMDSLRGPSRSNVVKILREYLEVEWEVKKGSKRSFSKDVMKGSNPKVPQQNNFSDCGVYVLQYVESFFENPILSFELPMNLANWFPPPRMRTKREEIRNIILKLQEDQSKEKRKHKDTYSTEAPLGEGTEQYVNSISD

Streptococcus = assay: GAS UMAA2166 growth inhibition – luminescence, BacTiterGlo, counter-screen for streptokinase expression inhibitor project, dose response (AID 1915); type: functional, organism-based;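 further: potency for reduction of bacterial viability or growth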
Caspase-3 [7] = target: T5, Caspase-3 (Homo sapiens, UniProt P42574); type: functional
T5 sequence (P42574 whole entry): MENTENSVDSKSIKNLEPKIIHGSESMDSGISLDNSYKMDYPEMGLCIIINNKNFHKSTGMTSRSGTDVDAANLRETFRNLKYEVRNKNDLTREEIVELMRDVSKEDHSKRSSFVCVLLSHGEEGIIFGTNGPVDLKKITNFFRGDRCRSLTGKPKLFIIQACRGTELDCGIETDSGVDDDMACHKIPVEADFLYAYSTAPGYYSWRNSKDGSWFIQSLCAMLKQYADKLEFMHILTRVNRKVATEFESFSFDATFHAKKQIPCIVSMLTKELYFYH

[8] = target: T6, Sentrin-specific protease 8 (Homo sapiens, UniProt Q96LD8); type: functional;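 further: luminescence read-out of SENP8 inhibition, dose-response confirmation following an ultra-high-throughput screen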
T6 sequence (Q96LD8 whole entry): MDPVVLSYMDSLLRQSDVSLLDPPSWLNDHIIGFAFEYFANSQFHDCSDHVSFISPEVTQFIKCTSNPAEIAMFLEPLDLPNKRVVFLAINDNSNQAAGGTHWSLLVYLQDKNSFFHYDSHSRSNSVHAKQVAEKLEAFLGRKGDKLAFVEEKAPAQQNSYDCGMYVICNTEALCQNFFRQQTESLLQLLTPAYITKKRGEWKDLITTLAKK

[9] = test system: Streptococcus sp. 'group A'; assay: Streptococcus pyogenes SK(-)GAS viability under kanamycin – luminescence, BacTiterGlo, confirmation, counter-screen for streptokinase expression inhibitor project, dose response (AID 1900); type: functional, organism-based
[10] = target: T3, Sentrin-specific protease 7; type: functional
Caspase-3 [11] = target: T5, Caspase-3; assay: SAR Analysis of small molecule inhibitors of Sentrin-specific proteases (SENPs) using a Caspase-3 Selectivity assay. [Related pubchem assays (depositor defined):AID2540, AID2599, AID434973, AID489001]; type: functional
Streptokinase A = target: T7, Streptokinase A (Streptococcus pyogenes serotype M1, UniProt P10520); assay: viability-normalized secreted streptokinase activity reduction – plasminogen activation absorbance, OD405, dose response (AID 1914); type: functional, Streptococcus pyogenes M1 GAS;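 further: secreted streptokinase activity via plasminogen activation per viability signal from cell pellet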
T7 sequence (P10520 whole entry): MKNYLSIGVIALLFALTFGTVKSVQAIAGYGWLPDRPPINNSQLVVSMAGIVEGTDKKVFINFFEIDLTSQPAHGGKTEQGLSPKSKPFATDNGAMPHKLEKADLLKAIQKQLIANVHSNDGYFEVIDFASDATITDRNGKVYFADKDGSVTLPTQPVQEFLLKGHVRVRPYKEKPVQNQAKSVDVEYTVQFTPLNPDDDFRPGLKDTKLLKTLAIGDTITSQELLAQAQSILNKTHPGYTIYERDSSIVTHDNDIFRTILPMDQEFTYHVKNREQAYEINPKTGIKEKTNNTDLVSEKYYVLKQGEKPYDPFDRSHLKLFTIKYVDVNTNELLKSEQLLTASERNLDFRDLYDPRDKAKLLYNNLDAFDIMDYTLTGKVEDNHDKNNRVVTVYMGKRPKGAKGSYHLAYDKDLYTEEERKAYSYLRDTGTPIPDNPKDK

[12] = target: T4, Sentrin-specific protease 6; assay: SAR Analysis of small molecule inhibitors of Sentrin-specific protease 6 (SENP6) using a Luminescent assay. [Related pubchem assays (depositor defined):AID2582, AID2599]; type: functional
[13] = viability loss in THP-1 monocytes – THP-1 cells, cytotoxicity control for Vif-APOBEC3G degradation inhibitor project, dose response (AID 1117359); type: functional; settings: THP-1

Chain of Beta-galactosidase (Q8VNN2 whole entry): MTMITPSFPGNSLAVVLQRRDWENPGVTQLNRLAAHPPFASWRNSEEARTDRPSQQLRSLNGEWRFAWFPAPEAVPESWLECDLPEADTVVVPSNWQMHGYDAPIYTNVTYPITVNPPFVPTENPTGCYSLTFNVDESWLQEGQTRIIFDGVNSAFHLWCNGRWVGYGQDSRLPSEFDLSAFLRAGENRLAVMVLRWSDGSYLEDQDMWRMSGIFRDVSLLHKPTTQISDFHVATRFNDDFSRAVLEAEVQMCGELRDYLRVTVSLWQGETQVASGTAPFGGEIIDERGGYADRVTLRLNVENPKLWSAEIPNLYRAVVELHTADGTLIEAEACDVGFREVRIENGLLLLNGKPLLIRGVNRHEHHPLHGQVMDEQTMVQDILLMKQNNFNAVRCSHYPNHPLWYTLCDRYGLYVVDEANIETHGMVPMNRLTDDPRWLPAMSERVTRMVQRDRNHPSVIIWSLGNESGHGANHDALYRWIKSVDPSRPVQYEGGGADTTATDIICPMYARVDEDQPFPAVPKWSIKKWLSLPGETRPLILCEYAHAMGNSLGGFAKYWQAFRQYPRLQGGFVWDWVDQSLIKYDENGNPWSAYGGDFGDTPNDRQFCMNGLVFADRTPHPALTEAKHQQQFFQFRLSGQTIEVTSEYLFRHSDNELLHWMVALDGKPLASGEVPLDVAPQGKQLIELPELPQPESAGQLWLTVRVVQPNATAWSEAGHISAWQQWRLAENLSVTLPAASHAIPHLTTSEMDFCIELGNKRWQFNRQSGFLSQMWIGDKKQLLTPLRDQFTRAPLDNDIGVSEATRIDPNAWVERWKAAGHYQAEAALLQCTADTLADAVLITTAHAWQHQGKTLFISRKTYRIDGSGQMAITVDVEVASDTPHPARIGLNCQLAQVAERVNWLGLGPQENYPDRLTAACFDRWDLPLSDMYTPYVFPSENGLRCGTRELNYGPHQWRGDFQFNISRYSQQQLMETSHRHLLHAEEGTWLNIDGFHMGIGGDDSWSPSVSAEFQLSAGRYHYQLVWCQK

SMILES: COC(=O)C[C@@H]1CC[C@@H]2[C@H](COC[C@@H](O)CN2C(=O)Nc2cccc(F)c2)O1
- AC50 [1]: 10 µM (active)

SMILES: CN(C)CCN(Cc1ccco1)C(=O)c1cc2c(Cl)nc3ccccc3c2s1
- EC50 [2]: 9.5 µM (active)
- EC50 (cells): 0.115 µM (active)
- EC50 (Beta-galactosidase): > 40 µM (inactive)
- IC50 [3]: 33.8 µM (not active)
- EC50 [4]: < 0.1 µM (active)

SMILES: COc1cc(OC)c(OC)cc1CNCCc1ccc(F)cc1
- EC50 [2]: > 60 µM (not active)
- EC50 (cells): 0.055 µM (active)
- EC50 [4]: < 0.1 µM (active)

SMILES: CCOC(=O)c1ccc(-[n+]2c(-c3ccccc3)cc(-c3ccccc3)cc2-c2ccccc2)cc1.[O-][Cl+3]([O-])([O-])[O-]
- EC50 [2]: > 60 µM (not active)
- EC50 (cells): 0.047 µM (active)
- EC50 [4]: < 0.1 µM (active)
- AC50 (INS1): 2.02 µM (active)

SMILES: Cc1cccc(C(=O)Nc2scc(-c3ccc(Br)cc3)c2C(=O)O)c1
- IC50 [5]: 6.38 µM (active)
- IC50 [6]: 4.28 µM (active)
- EC50 (Streptococcus): 8.14 µM (active)
- IC50 (Caspase-3 [7]): 5.21 µM (active)
- IC50 [8]: 3.72 µM (active)
- EC50 [9]: 2.33 µM (active)
- IC50 [10]: > 100 µM (inactive)
- IC50 (Caspase-3 [11]): 4.89 µM (active)
- EC50 (Streptokinase A): > 150 µM (not active)
- IC50 [12]: 3.42 µM (active)

SMILES: COC(=O)c1c(C(=O)OC)c(-c2ccc(F)cc2)n2c1C[S+]([O-])C2 (stereo unspecified)
- AC50 [1]: 10.3 µM (active)

SMILES: NC(=O)c1ccc(Oc2cccc3cccnc23)c([N+](=O)[O-])c1
- AC50 [1]: 2.3 µM (active)

SMILES: CCOC(=O)c1ccc(N2C(=O)c3[nH]nc(C)c3C2c2ccc(OC)cc2OC)cc1 (stereo unspecified)
- CC50 [13]: > 40 µM (active)

SMILES: O=C(c1cccc(F)c1)N1CC[C@@H]2[C@H]1c1cc(-c3cccc(F)c3)ccc1N[C@@H]2CO
- AC50 [1]: 5.94 µM (active)

SMILES: CN(C)CCNc1ccc(-c2nn(C)c(=O)c3ccccc23)cc1[N+](=O)[O-]
- EC50 [2]: > 60 µM (not active)
- EC50 (cells): 0.062 µM (active)
- EC50 [4]: < 0.1 µM (active)

SMILES: C[C@H](CO)N1C[C@H](C)[C@@H](CN(C)Cc2ccc3c(c2)OCO3)Oc2ccc(NC(=O)Cn3cnnn3)cc2CC1=O
- AC50 [1]: 13 µM (active)

Reference: ChEMBL document CHEMBL1201862, “PubChem BioAssay data set” (2004)
